In PubChem BioAssay AID588503 (Sanford-Burnham Center for Chemical Genomics, 2011):
Where “and” joins values, the source holds several entries; their conditions need not be identical. Equal entries are not always repeated. Calls of active or inactive are those of the source.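 The calls were made as follows: active = compounds whose mean half-maximal effective concentration EC50 is at most 20 µM; inactive = the rest.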

Each compound was assayed against G-protein coupled receptor 35 (Homo sapiens) (UniProt Q9HC97) (assay: GPR35 activation by analogs, SAR follow-up, selectivity assay for NTR1 agonist project, imaging, U2OS, beta-arrestin-GFP (AID 588503)). Settings: GPR35-U2OS beta-arrestin-GFP translocation imaging.
Sequence of G-protein coupled receptor 35 (Homo sapiens) (Q9HC97 whole entry, looked up): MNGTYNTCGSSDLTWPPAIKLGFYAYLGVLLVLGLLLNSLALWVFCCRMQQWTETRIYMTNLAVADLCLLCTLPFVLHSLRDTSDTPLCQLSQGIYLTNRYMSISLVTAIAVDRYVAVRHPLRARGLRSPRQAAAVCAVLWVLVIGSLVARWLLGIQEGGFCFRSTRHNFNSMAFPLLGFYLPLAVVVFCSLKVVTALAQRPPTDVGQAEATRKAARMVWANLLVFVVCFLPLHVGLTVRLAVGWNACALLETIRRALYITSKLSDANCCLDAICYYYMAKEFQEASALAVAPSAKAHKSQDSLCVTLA

| Compound | EC50 |
| --- | --- |
| COc1cccc(OC)c1-c1cc(C(=O)N[C@@H](CC(C)C)C(=O)O)nn1-c1ccnc2cc(Cl)ccc12 | > 40 µM (inactive) |
| COc1cc2nc(C3CCC3)nc(N3CCN(c4ccccc4OC)CC3)c2cc1OC | > 40 µM (inactive) |
| CCN(CC)S(=O)(=O)c1ccc(-c2csc(N/N=C/c3ccco3)n2)cc1 | inactive |
| COc1cc2c3nnc(-c4ccc(C)c(C)c4)c-3cn(Cc3ccccc3)c2cc1OC | inactive |
| Clc1ccccc1-n1ncc2c(N3CCN(c4ccccc4)CC3)ncnc21 | > 40 µM (inactive) |
| COc1cccc(OC)c1-c1nc(C(=O)N[C@@H](CC(C)C)C(=O)O)cn1-c1ccnc2ccccc12 | > 40 µM (inactive) |
| COc1cc2c3nnc(-c4ccc(Cl)cc4)c-3cn(Cc3ccccc3)c2cc1OC | 10.5 µM |
| CC(C)C[C@H](NC(=O)c1cn(-c2ccnc3cc(Cl)ccc23)c(-c2c(Cl)cccc2Cl)n1)C(=O)O | > 40 µM (inactive) |
| Cc1ccc(Cn2cc3c(-c4ccc(F)cc4)nnc-3c3cc4c(cc32)OCO4)cc1 | > 40 µM (inactive) |
| Cc1ccc(C)c(-n2ncc3c(N4CCN(c5ccccc5)CC4)ncnc32)c1 | > 40 µM (inactive) |
| COc1ccc(Cn2c(SCc3ccccc3)nc3cc(OC)c(OC)cc3c2=N)cc1Cl | > 40 µM (inactive) |
| Cc1ccc(-n2ncc3c(N4CCN(c5ccccc5F)CC4)ncnc32)c(C)c1 | > 40 µM (inactive) |
| Cc1ccc(-n2ncc3c(N4CCN(c5ccccc5)CC4)ncnc32)c(C)c1 | > 40 µM (inactive) |
| COc1cccc(N2CCN(c3ncnc4c3cnn4-c3ccc(C)cc3C)CC2)c1 | > 40 µM (inactive) |
| CN(C)S(=O)(=O)c1ccc(-c2csc(N/N=C/c3ccco3)n2)cc1 | > 40 µM (inactive) |
| Cc1cccc(C)c1-c1nc(C(=O)N[C@@H](CC(C)C)C(=O)O)cn1-c1ccnc2cc(Cl)ccc12 | > 40 µM (inactive) |
| COc1cc2c3nnc(-c4ccc(F)cc4)c-3cn(Cc3ccc(F)cc3)c2cc1OC | 13.6 µM |
| COc1ccc(-c2nnc3c4cc(OC)c(OC)cc4n(Cc4ccc(C)cc4)cc2-3)cc1 | 6.26 µM |
| COc1cc2c3nnc(-c4ccc(C)cc4)c-3cn(Cc3ccc(F)cc3)c2cc1OC | 8.31 µM |
| COc1ccc(Cn2c(SCc3ccccc3C)nc3cc(OC)c(OC)cc3c2=N)cc1Cl | > 40 µM (inactive) |
| COc1cc2c3nnc(-c4ccc(F)cc4)c-3cn(Cc3ccc(C)cc3)c2cc1OC | 8.57 µM and 7.58 µM |

| Compound | EC50 |
| --- | --- |
| COc1cc2c3nnc(-c4ccccc4)c-3cn(Cc3ccccc3)c2cc1OC | inactive |
| COc1ccc(Cn2c(SCc3cc(C)ccc3C)nc3cc(OC)c(OC)cc3c2=N)cc1Cl | > 40 µM (inactive) |
| COc1cc2c3nnc(-c4ccc(F)cc4)c-3cn(Cc3cccc(C)c3)c2cc1OC | 6.07 µM |
| COc1cc2c3nnc(-c4ccc(Cl)cc4)c-3cn(Cc3ccc(F)cc3)c2cc1OC | 8.32 µM |
| COc1ccccc1-c1cc(C(=O)N[C@@H](CC(C)C)C(=O)O)nn1-c1ccnc2cc(Cl)ccc12 | > 40 µM (inactive) |
| COc1cc2c3nnc(-c4ccc(Cl)cc4)c-3cn(Cc3ccc(C)cc3)c2cc1OC | > 40 µM (inactive) |
| COc1ccc(Cn2c(SCc3cccc(C(F)(F)F)c3)nc3cc(OC)c(OC)cc3c2=N)cc1Cl | > 40 µM (inactive) |
| COc1cc2nc(C3CCC3)nc(N3CCN(c4ccccc4C)CC3)c2cc1OC | > 40 µM (inactive) |
| CCOc1ccc(-c2nnc3c4cc(OC)c(OC)cc4n(Cc4ccc(C)cc4)cc2-3)cc1 | > 40 µM (inactive) |
| Cc1cc(Cl)ccc1-n1ncc2c(N3CCN(c4ccccc4)CC3)ncnc21 | > 40 µM (inactive) |
| COc1cccc(OC)c1-c1nc(C(=O)N[C@@H](CC(C)C)C(=O)O)cn1-c1cccc2ccccc12 | > 40 µM (inactive) |
| COc1cc2nc(-c3ccccc3)nc(N3CCN(c4ccccc4OC)CC3)c2cc1OC | > 40 µM (inactive) |
| COc1cc2c3nnc(-c4ccc(C)cc4)c-3cn(Cc3ccc(C)cc3)c2cc1OC | 8.86 µM |
| COc1ccc(Cn2c(SCc3ccc(C)cc3)nc3cc(OC)c(OC)cc3c2=N)cc1Cl | inactive |
| COc1ccccc1N1CCN(c2ncnc3c2cnn3-c2ccc(C)cc2C)CC1 | > 40 µM (inactive) |
| CCOc1ccc(-c2nnc3c4cc(OC)c(OC)cc4n(Cc4ccccc4)cc2-3)cc1 | inactive |
| COc1cc2c3nnc(-c4ccc(F)cc4)c-3cn(Cc3ccccc3)c2cc1OC | 9.82 µM |
| COc1cccc(OC)c1-c1nc(C(=O)N[C@@H](CC(C)C)C(=O)O)cn1-c1ccnc2cc(Cl)ccc12 | > 40 µM (inactive) |
| O=S(=O)(c1ccc(-c2csc(N/N=C/c3ccco3)n2)cc1)N1CCCC1 | > 40 µM (inactive) |
| CCOc1ccc(-c2nnc3c4cc(OC)c(OC)cc4n(Cc4ccc(F)cc4)cc2-3)cc1 | inactive |
| CN(C)S(=O)(=O)c1ccc(-c2csc(N/N=C/c3cccs3)n2)cc1 | > 40 µM (inactive) |
